Measured values published in patent US20200038513A1, “MODULATORS OF FAK PROTEOLYSIS AND ASSOCIATED METHODS OF USE” (ARVINAS OPERATIONS, INC., priority 2018, published 2020).
Like-named read-outs stand apart in the source and are kept apart here.

Key:
[1] = Pharmacokinetics of intraperitoneal or intravenous injection in CD1 mice; format: in vivo; conditions: for concentration at 0.25 h / concentration at 0.5 h / concentration at 1 h / concentration at 2 h / concentration at 4 h / concentration at 8 h / concentration at 24 h / AUC(0-t) / half-life / concentration at 0.033 h / concentration at 0.083 h: male, CD1, mouse, plasma
Outline: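 Male CD1 mice, 6-8 weeks old, 3 per group, dosed IV (5 s injection; 10% HP-b-CD, 40 mM sodium acetate, 40 mM NaCl, pH 4.5) or IP (5% EtOH, 5% Solutol HS15 in D5W). Serial dorsal metatarsal vein blood, terminal heart puncture; plasma analysed by LC/MS/MS after acetonitrile precipitation, calibration 1-2000 ng/mL.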

PPB = format: in vitro ADME; conditions: plasma
[2] = IV 1.0 mg/kg, CD1 mice plasma, 24 h
[3] = ip, 10 mg/kg, IP 10 mg/kg, CD1 mice plasma, read-out: Conc. (ng/mL) Mouse 1
[4] = ip, 10 mg/kg, IP 10 mg/kg, CD1 mice plasma, read-out: Conc. (ng/mL) Mouse 2
[5] = ip, 10 mg/kg, IP 10 mg/kg, CD1 mice plasma, read-out: Conc. (ng/mL) Mouse 3
[6] = ip, 10 mg/kg, IP 10 mg/kg, CD1 mice plasma, read-out: Mean
[7] = iv, 1 mg/kg, IV 1.0 mg/kg, CD1 mice plasma, read-out: Conc. (ng/mL) Mouse 1
[8] = iv, 1 mg/kg, IV 1.0 mg/kg, CD1 mice plasma, read-out: Conc. (ng/mL) Mouse 2
[9] = iv, 1 mg/kg, IV 1.0 mg/kg, CD1 mice plasma, read-out: Conc. (ng/mL) Mouse 3
[10] = iv, 1 mg/kg, IV 1.0 mg/kg, CD1 mice plasma, read-out: Mean

## Cc1ncsc1-c1ccc(CNC(=O)[C@@H]2C[C@@H](O)CN2C(=O)[C@@H](NC(=O)CCOCCCOc2ccc(Nc3ncc(C(F)(F)F)c(NCc4cccc(N(C)S(C)(=O)=O)c4)n3)cc2)C(C)(C)C)cc1 [Compound 103, (2S,4R)-1-((S)-3,3-dimethyl-2-(3-(3-(4-((4-((3-(N-methylmethylsulfonamido)benzyl)amino)-5-(trifluoromethyl)pyrimidin-2-yl)amino)phenoxy)propoxy)propanamido)butanoyl)-4-hydroxy-N-(4-(4-methylthiazol-5-yl)benzyl)pyrrolidine-2-carboxamide]
[1]; IP 10 mg/kg, CD1 mice plasma, 24 h
  Conc. (ng/mL) Mouse 2: BLOQ
[1]; [2]
  Conc. (ng/mL) Mouse 1: BLOQ
  Conc. (ng/mL) Mouse 2: BLOQ
  Conc. (ng/mL) Mouse 3: BLOQ
[1]; [3]
  concentration at 0.25 h: 877 ng/mL
  concentration at 0.5 h: 842 ng/mL
  concentration at 1 h: 2010 ng/mL
  concentration at 2 h: 2130 ng/mL
  concentration at 4 h: 1260 ng/mL
  concentration at 8 h: 321 ng/mL
[1]; [4]
  concentration at 0.25 h: 494 ng/mL
  concentration at 0.5 h: 639 ng/mL
  concentration at 1 h: 2460 ng/mL
  concentration at 2 h: 3300 ng/mL
  concentration at 4 h: 1210 ng/mL
  concentration at 8 h: 68.5 ng/mL
[1]; [5]
  concentration at 0.25 h: 562 ng/mL
  concentration at 0.5 h: 608 ng/mL
  concentration at 1 h: 1230 ng/mL
  concentration at 2 h: 826 ng/mL
  concentration at 4 h: 768 ng/mL
  concentration at 8 h: 306 ng/mL
[1]; [6]
  concentration at 0.25 h: 645 ng/mL
  concentration at 0.5 h: 696 ng/mL
  concentration at 1 h: 1900 ng/mL
  concentration at 2 h: 2090 ng/mL
  concentration at 4 h: 1080 ng/mL
  concentration at 8 h: 232 ng/mL
[1]; ip, 10 mg/kg, IP 10 mg/kg, CD1 mice plasma, 24 h, read-out: Conc. (ng/mL) Mouse 1
  concentration at 24 h: 0.824 ng/mL
[1]; ip, 10 mg/kg, IP 10 mg/kg, CD1 mice plasma, 24 h, read-out: Conc. (ng/mL) Mouse 3
  concentration at 24 h: 4.5 ng/mL
[1]; ip, 10 mg/kg, IP 10 mg/kg, CD1 mice plasma, 24 h, read-out: Mean
  concentration at 24 h: 2.66 ng/mL
[1]; ip, 10 mg/kg, read-out: AUClast (h * ng/mL) IP
  AUC(0-t): 10400 ng·h/mL
[1]; ip, 10 mg/kg, read-out: T ½ (h) IP (converted)
  half-life: 1.87 h
[1]; [7]
  concentration at 0.033 h: 4370 ng/mL
  concentration at 0.083 h: 1660 ng/mL
  concentration at 0.25 h: 376 ng/mL
  concentration at 0.5 h: 140 ng/mL
  concentration at 1 h: 52.1 ng/mL
  concentration at 2 h: 36.1 ng/mL
  concentration at 4 h: 10.8 ng/mL
  concentration at 8 h: 2.33 ng/mL
[1]; [8]
  concentration at 0.033 h: 3940 ng/mL
  concentration at 0.083 h: 1730 ng/mL
  concentration at 0.25 h: 382 ng/mL
  concentration at 0.5 h: 132 ng/mL
  concentration at 1 h: 58.8 ng/mL
  concentration at 2 h: 27.7 ng/mL
  concentration at 4 h: 12.9 ng/mL
  concentration at 8 h: 8.35 ng/mL
[1]; [9]
  concentration at 0.033 h: 4020 ng/mL
  concentration at 0.083 h: 1820 ng/mL
  concentration at 0.25 h: 395 ng/mL
  concentration at 0.5 h: 135 ng/mL
  concentration at 1 h: 57.5 ng/mL
  concentration at 2 h: 32.1 ng/mL
  concentration at 4 h: 13 ng/mL
  concentration at 8 h: 4.11 ng/mL
[1]; [10]
  concentration at 0.033 h: 4110 ng/mL
  concentration at 0.083 h: 1740 ng/mL
  concentration at 0.25 h: 384 ng/mL
  concentration at 0.5 h: 136 ng/mL
  concentration at 1 h: 56.2 ng/mL
  concentration at 2 h: 32 ng/mL
  concentration at 4 h: 12.3 ng/mL
  concentration at 8 h: 4.93 ng/mL
[1]; iv, 1 mg/kg, read-out: AUClast (h * ng/mL) IV
  AUC(0-t): 747 ng·h/mL
[1]; iv, 1 mg/kg, read-out: T ½ (h) IV (converted)
  half-life: 2.44 h
PPB
  fraction unbound: 0.0022
